According to US12410164B2, “Heterocyclic compounds and medical use thereof” (FONDAZIONE TELETHON, priority 2018, dated 2025):

Target: F508del-CFTR (Homo sapiens, UniProt P13569, DEL508-508)
Test: HS-YFP kinetic fluorescence (iodide quenching rate) assay in CFBE41o− cells
Type: cell-based
Set-up: expressed in transfected cells; host or cells: CFBE41o- cells with expression of F508del-CFTR and HS-YFP (generated as in Sondo et al. 2011)
Conditions: compound at 10 μM plus VX-809
Protocol: CFBE41o- cells, with expression of F508del-CFTR and halogen-sensitive fluorescent protein, were generated as previously described (Sondo E, et al. Am J Physiol. 2011, 301, […]-[…]). For the test, the cells were seeded in 96-well microplates using a culture medium consisting of DMEM and Ham's F12 (1:1) supplemented with 10% foetal bovine serum. After 24 hours from seeding, the cells were treated for another 24 hours with the test compounds dissolved in the culture medium at the desired concentrations. As a negative control, the solvent of the compounds (dimethyl sulfoxide, DMSO) dissolved in the medium with the same dilution ratio (final percentage of DMSO:0.1-0.2%) was used. As a positive control, the corrector VX-809 (Selleck Chemicals, […]) was used at a concentration of 1 μM. After treatment, the medium with the compounds was removed and the cells were stimulated with forskolin (Sigma-Aldrich, F6886) 20 μM plus genistein (Sigma-Aldrich, G6649) 50 μM (in 60 μl of PBS saline) to maximally activate the CFTR channels present in the membrane. In a microplate reader (FLUOstar-Omega, BMG) the fluorescence of the cells in each well was read for 14 seconds, with an injection of 165 μl of a iodide-enriched saline (modified PBS where NaCl, 137 mM, has been replaced with the same concentration of NaI). The iodide transport activity in each well was evaluated by subtraction of the background fluorescence (measured in a well without cells), subsequent normalization with respect to the initial fluorescence and finally by interpolation of the fluorescence quenching phase with an exponential function that allows the derivation of the maximum slope (quenching rate, QR). The activity of the synthesized compounds was initially evaluated on the CFBE41o- cell line with expression of the mutated F508del-CFTR protein described above (Sondo E, et al. Am J Physiol. 2011, 301, […]-[…]). For this purpose, a functional assay based on the fluorescent YFP protein sensitive to halides, HS-YFP, was used (Galietta L J, et al. J Biol Chem. 2001, 276, 19723-19728). The fluorescence of the HS-YFP protein is turned off by iodide. Therefore, if exposed to a solution containing iodide, cells with HS-YFP expression show a quenching speed of the fluorescence which depends on the presence and activity of anionic channels. Under control conditions, the mutated CFTR protein presents a serious defect of stability and maturation, so it remains trapped in the endoplasmic reticulum not reaching the cell surface in enough quantity. In the HS-YFP-based assay, this defect results in a low anion transport capacity and therefore in a low quenching rate (QR). Treatment for a prolonged time (e.g. 24 hours) with a corrector determines an improvement in protein maturation with an increase in the number of CFTR channels present in the membrane and therefore an increase in the flux of iodide and QR. In a first phase, the authors screened about 200 heterocyclic molecules with various nitrogenated tricyclic scaffolds. Conditions previously described have been used for screening (Sondo E, et al. Am J Physiol. 2011, 301, […]-[…]) and reported herein in the Materials and Methods section. A threshold equal to the average value plus three times the standard deviation of the QR of wells without compounds (only DMSO in the culture medium) was used as a criterion for the selection of active compounds.

[1] = Table 1, (QRTOT − QRVX)/QRVX, HS-YFP assay

Sequence of F508del-CFTR (P13569 with tags, fused parts or gaps DEL508-508): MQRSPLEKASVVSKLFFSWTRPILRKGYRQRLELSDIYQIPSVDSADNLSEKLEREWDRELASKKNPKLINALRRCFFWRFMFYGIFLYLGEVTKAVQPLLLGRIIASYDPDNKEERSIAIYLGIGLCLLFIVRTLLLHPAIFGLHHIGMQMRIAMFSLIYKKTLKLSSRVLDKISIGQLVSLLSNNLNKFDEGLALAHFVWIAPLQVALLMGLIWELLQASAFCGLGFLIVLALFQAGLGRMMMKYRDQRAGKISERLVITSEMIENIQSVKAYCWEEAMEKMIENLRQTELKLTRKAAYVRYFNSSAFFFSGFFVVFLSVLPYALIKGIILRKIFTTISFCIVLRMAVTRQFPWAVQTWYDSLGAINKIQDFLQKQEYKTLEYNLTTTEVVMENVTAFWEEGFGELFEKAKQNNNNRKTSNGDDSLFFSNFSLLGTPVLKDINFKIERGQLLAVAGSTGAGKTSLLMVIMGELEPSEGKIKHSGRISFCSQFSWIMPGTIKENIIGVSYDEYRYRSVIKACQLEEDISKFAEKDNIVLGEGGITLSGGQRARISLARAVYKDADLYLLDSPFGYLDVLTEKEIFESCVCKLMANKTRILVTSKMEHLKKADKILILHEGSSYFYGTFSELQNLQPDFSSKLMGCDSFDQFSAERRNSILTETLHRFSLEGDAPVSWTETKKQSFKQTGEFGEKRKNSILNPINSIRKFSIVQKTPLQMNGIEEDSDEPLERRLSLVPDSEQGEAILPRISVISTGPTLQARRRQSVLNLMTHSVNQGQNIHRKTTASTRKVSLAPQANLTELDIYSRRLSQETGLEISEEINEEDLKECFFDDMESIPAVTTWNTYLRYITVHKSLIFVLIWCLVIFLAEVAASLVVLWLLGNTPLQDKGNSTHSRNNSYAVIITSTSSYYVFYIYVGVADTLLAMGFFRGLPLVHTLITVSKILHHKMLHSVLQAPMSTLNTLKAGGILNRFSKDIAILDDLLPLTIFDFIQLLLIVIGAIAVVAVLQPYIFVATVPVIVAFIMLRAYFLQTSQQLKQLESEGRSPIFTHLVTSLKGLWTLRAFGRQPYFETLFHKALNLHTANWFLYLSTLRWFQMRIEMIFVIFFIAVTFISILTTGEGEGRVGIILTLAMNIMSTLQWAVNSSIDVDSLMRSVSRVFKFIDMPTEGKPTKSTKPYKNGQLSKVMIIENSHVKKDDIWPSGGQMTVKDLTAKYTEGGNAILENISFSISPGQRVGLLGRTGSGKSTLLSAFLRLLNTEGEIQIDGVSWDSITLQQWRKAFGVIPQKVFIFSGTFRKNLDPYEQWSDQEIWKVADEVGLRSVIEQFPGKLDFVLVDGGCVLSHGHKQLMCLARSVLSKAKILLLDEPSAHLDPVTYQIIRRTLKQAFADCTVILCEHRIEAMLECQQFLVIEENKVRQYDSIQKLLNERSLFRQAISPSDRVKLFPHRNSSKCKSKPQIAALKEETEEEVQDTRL

Row | AI (%) additivity index [1] [%] | Structure (SMILES) | also measured
1 | 62 | CCOC(=O)c1cc2c(n1Cc1ccc(C)nc1)-c1[nH]c(=O)c(S(=O)(=O)c3ccccc3)cc1CC2 [PP066, Ethyl 7-(benzenesulfonyl)-1-[(6-methylpyridin-3-yl)methyl]-8-oxo-4,5,8,9-tetrahydro-1H-pyrrolo[3,2-h]quinoline-2-carboxylate] | 
2 |  | CCOC(=O)c1nn(Cc2ccc(Br)cc2)c2c1CCc1cc(S(=O)(=O)c3ccccc3)c(=O)[nH]c1-2 [PZ5, Ethyl 7-(benzenesulfonyl)-1-[(4-bromophenyl)methyl]-8-oxo-4,5,8,9-tetrahydro-1H-pyrazolo[4,3-h]quinoline-3-carboxylate] | AI (%) additivity index (Table 6, (QRTOT-QRVX)/QRVX): 64%
3 |  | CCOC(=O)c1cc2ccc3cc(S(=O)(=O)c4ccccc4)c(=O)[nH]c3c2n1Cc1ccc(C)cc1 [14 (PP058), Ethyl 1-(4-methylbenzyl)-8-oxo-7-(phenylsulfonyl)-8,9-dihydro-1H-pyrrolo[3,2-h]quinoline-2-carboxylate] | AI additivity index (Table 1a, (QRTOT − QRVX)/QRVX): 177%
4 | 40 | CCOC(=O)c1cc2c(n1Cc1ccc(C)cc1C)-c1[nH]c(=O)c(S(=O)(=O)c3ccccc3)cc1CC2 [PP021, Ethyl 7-(benzenesulfonyl)-1-[(2,4-dimethylphenyl)methyl]-8-oxo-4,5,8,9-tetrahydro-1H-pyrrolo[3,2-h]quinoline-2-carboxylate] | 
5 |  | CCOC(=O)c1cc2c(n1Cc1ccc(Br)cc1)-c1nc(NS(=O)(=O)c3ccccc3)ncc1CC2 [SVQ15, Ethyl 2-[(benzenesulfonyl)amino]-9-[(4-bromophenyl)methyl]-6,9-dihydro-5H-pyrrolo[3,2-h]quinazoline-8-carboxylate] | AI additivity index (Table 3, (QRTOT-QRVX)/QRVX): 100%
6 |  | CCOC(=O)c1c(Br)cc2n1CCc1cc(S(=O)(=O)c3ccccc3)c(=O)[nH]c1-2 [QZN2, Ethyl 3-(benzenesulfonyl)-9-bromo-2-oxo-1,2,5,6-tetrahydropyrrolo[1,2-h][1,7]naphthyridine-8-carboxylate] | AI (%) additivity index (Table 4, (QRTOT − QRVX)/QRVX): 19%
7 |  | CC(C)OC(=O)c1ccc2n1CCc1cnc(NC3CCCC3)nc1-2 [QZQ20, Propan-2-yl 2-(cyclopentylamino)-5,6-dihydropyrimido[5,4-g]indolizine-8-carboxylate] | AI (%) additivity index (Table 5, (QRTOT-QRVX)/QRVX): 5%
8 | 82 | O=C(NC1CC1)c1c(Br)c2c(n1Cc1ccc(Br)cc1)-c1[nH]c(=O)c(S(=O)(=O)c3ccccc3)cc1CC2 [PP099, 7-(Benzenesulfonyl)-3-bromo-1-[(4-bromophenyl)methyl]-N-cyclopropyl-8-oxo-4,5,8,9-tetrahydro-1H-pyrrolo[3,2-h]quinoline-2-carboxamide] | 
9 | 11 | Cc1ccc(Cn2c(C(=O)O)c(Br)c3c2-c2[nH]c(=O)c(S(=O)(=O)c4ccccc4)cc2CC3)cc1C [PP095, 7-(Benzenesulfonyl)-3-bromo-1-[(3,4-dimethylphenyl)methyl]-8-oxo-4,5,8,9-tetrahydro-1H-pyrrolo[3,2-h]quinoline-2-carboxylic acid] | 
10 | 116 | Cc1ccc(Cn2c(C(=O)NC(C)C)c(Br)c3c2-c2[nH]c(=O)c(S(=O)(=O)c4ccccc4)cc2CC3)cc1 [PP086, 7-(Benzenesulfonyl)-3-bromo-1-[(4-methylphenyl)methyl]-8-oxo-N-(propan-2-yl)-4,5,8,9-tetrahydro-1H-pyrrolo[3,2-h]quinoline-2-carboxamide] | 
11 | 4 | O=C(NC1CC1)c1cc2c(n1Cc1ccc(Br)cc1)-c1[nH]c(=O)c(S(=O)(=O)c3ccccc3)cc1CC2 [PP098, 7-(Benzenesulfonyl)-1-[(4-bromophenyl)methyl]-N-cyclopropyl-8-oxo-4,5,8,9-tetrahydro-1H-pyrrolo[3,2-h]quinoline-2-carboxamide] | 
12 | 33 | COC(=O)c1cc2c(n1Cc1ccccc1C)-c1[nH]c(=O)c(S(=O)(=O)c3ccccc3)cc1CC2 [PP020, Methyl 1-(2-methylbenzyl)-8-oxo-7-(phenylsulfonyl)-4,5,8,9-tetrahydro-1H-pyrrolo[3,2-h]quinoline-2-carboxylate] | 
13 | 10 | Cc1cccc(Cn2c(C(=O)NC3CC3)cc3c2-c2[nH]c(=O)c(S(=O)(=O)c4ccccc4)cc2CC3)c1 [PP084, 7-(Benzenesulfonyl)-N-cyclopropyl-1-[(3-methylphenyl)methyl]-8-oxo-4,5,8,9-tetrahydro-1H-pyrrolo[3,2-h]quinoline-2-carboxamide] | 
14 | 116 | CCOC(=O)c1cc2c(n1Cc1c(C)cc(C)cc1C)-c1[nH]c(=O)c(S(=O)(=O)c3ccccc3)cc1CC2 [PP068, Ethyl 7-(benzenesulfonyl)-8-oxo-1-[(2,4,6-trimethylphenyl)methyl]-4,5,8,9-tetrahydro-1H-pyrrolo[3,2-h]quinoline-2-carboxylate] | 
15 | 81 | CCOC(=O)c1c(Br)c2c(n1Cc1ccc(C)nc1)-c1[nH]c(=O)c(S(=O)(=O)c3ccccc3)cc1CC2 [PP067, Ethyl 7-(benzenesulfonyl)-3-bromo-1-[(6-methylpyridin-3-yl)methyl]-8-oxo-4,5,8,9-tetrahydro-1H-pyrrolo[3,2-h]quinoline-2-carboxylate] | 
16 | 420 | CCOC(=O)c1cc2c(n1Cc1ccc(F)cc1)-c1[nH]c(=O)c(S(=O)(=O)c3ccccc3)cc1CC2 [PP072, Ethyl 7-(benzenesulfonyl)-1-[(4-fluorophenyl)methyl]-8-oxo-4,5,8,9-tetrahydro-1H-pyrrolo[3,2-h]quinoline-2-carboxylate] | 
17 | 178 | CCOC(=O)c1cc2c(n1Cc1ccc(C)c(C)c1)-c1[nH]c(=O)c(S(=O)(=O)c3ccccc3)cc1CC2 [PP025, Ethyl 7-(benzenesulfonyl)-1-[(3,4-dimethylphenyl)methyl]-8-oxo-4,5,8,9-tetrahydro-1H-pyrrolo[3,2-h]quinoline-2-carboxylate] | 
18 | 39 | COC(=O)c1c(Br)c2c(n1Cc1ccc(C)cc1)-c1[nH]c(=O)c(S(=O)(=O)c3ccccc3)cc1CC2 [PP031, Methyl 3-bromo-1-(4-methylbenzyl)-8-oxo-7-(phenylsulfonyl)-4,5,8,9-tetrahydro-1H-pyrrolo[3,2-h]quinoline-2-carboxylate] | 
19 |  | CC(C)OC(=O)c1ccc2n1CCCc1cnc(N)nc1-2 [QZQ21, Propan-2-yl 2-amino-6,7-dihydro-5H-pyrimido[4,5-c]pyrrolo[1,2-a]azepine-9-carboxylate] | AI (%) additivity index (Table 5, (QRTOT-QRVX)/QRVX): 6%
20 | 257 | CC(C)OC(=O)c1c(Br)c2c(n1Cc1ccc(F)cc1)-c1[nH]c(=O)c(S(=O)(=O)c3ccccc3)cc1CC2 [PP108, Propan-2-yl 7-(benzenesulfonyl)-3-bromo-1-[(4-fluorophenyl)methyl]-8-oxo-4,5,8,9-tetrahydro-1H-pyrrolo[3,2-h]quinoline-2-carboxylate] | 
21 |  | CCOC(=O)c1nn(Cc2ccc(C)c(C)c2)c2c1CCc1cc(S(=O)(=O)c3ccccc3)c(=O)[nH]c1-2 [PZ7, Ethyl 7-(benzenesulfonyl)-1-[(3,4-dimethylphenyl)methyl]-8-oxo-4,5,8,9-tetrahydro-1H-pyrazolo[4,3-h]quinoline-3-carboxylate] | AI (%) additivity index (Table 6, (QRTOT-QRVX)/QRVX): 104%
22 |  | CCOC(=O)c1c(Br)c2c(n1Cc1ccc(C)c(C)c1)-c1nc(NS(=O)(=O)c3ccccc3)ncc1CC2 [SVQ14, Ethyl 2-[(benzenesulfonyl)amino]-7-bromo-9-[(3,4-dimethylphenyl)methyl]-6,9-dihydro-5H-pyrrolo[3,2-h]quinazoline-8-carboxylate] | AI additivity index (Table 3, (QRTOT-QRVX)/QRVX): 128%
